# Values joined by “and” are separate entries in the source; they are usually repeats but may differ in a detail not shown here. Identical values can stand only once.
# Legend:
# Assay type in all cases: in vitro ADME
# [1] = tested on: human liver microsomes (HLM); assay: Ticagrelor glucuronidation kinetics in pooled HLM
# Experimental: (§1) Ticagrelor glucuronidation was investigated in an in vitro incubation system by using HLM, HIM, and recombinant human UGTs. The incubation system consisted of enzyme sources (HLM, HIM, or human recombinant UGTs), various concentrations of ticagrelor (dissolved in 50% methanol, 1% v/v, 1, 2, 5, 10, 20, 50, 100, 200, 500 μM of final concentration), alamethicin (50 μg/mg protein), 5 mM MgCl2, 100 mM tris-HCL buffer (pH 7.4), and 5 mM UDPGA in a total volume of 100 μl. Alamethicin is a pore-forming polypeptide used to activate UGTs in HLM and HIM ([Fisher et al., 2000]). Preliminary studies were conducted to determine the optimal protein concentrations and incubation times. Linear conditions of ticagrelor-O-Glu formation from ticagrelor, i.e., HLM, 0.2 mg of protein/ml and 60 min, HIM, 0.2 mg of protein/ml and 60 min, and recombinant human UGTs, 0.2 mg of protein/ml and 60 min were selected. The incubation mixture without UDPGA was placed on ice for 15 min to activate UGT by alamethicin. After pre-incubation for 5 min at 37°C, the reactions were started by the addition of UDPGA. After another 60 min of incubation at 37°C, the reaction was terminated by adding 100 μl of acetonitrile containing internal standard (diazepam). The mixture vortexed for 2 min and then centrifuged at 14,000 rpm for 10 min at 4°C. The resulting supernatant was injected into a liquid chromatography tandem mass spectrometry (LC-MS/MS, Applied Biosystems/MDS Sciex, Foster City, CA) system for the detection of ticagrelor-O-Glu.
# (§2) Kinetic analyses were performed using the mean values of triplicate determinations with either pooled HLM, HIM, or recombinant human UGTs. All data were analyzed by nonlinear regression analysis using the GraphPad Prism 6 (GraphPad Software Inc., CA, United States). Michaelis-Menten kinetics (Eq. 1) or substrate inhibition kinetics (Eq. 2) ([Houston and Kenworthy, 2000]) were tested to determine the optimal model for describing the data. […] Intrinsic clearance (CLint) was calculated by dividing Vmax by Km.
# [2] = tested on: human intestinal microsomes (HIM); assay: Ticagrelor glucuronidation kinetics in pooled HIM
# Experimental: as §1, §2
# [3] = target: T1, UGT1A7 (Homo sapiens, UniProt Q9HAW7); assay: Ticagrelor glucuronidation by recombinant human UGT1A7; details: recombinant human UGT1A7, pH 7.4
# T1 construct: purchased BD Gentest; host or cells: baculovirus-infected insect cells
# T1 sequence (Q9HAW7 26-530): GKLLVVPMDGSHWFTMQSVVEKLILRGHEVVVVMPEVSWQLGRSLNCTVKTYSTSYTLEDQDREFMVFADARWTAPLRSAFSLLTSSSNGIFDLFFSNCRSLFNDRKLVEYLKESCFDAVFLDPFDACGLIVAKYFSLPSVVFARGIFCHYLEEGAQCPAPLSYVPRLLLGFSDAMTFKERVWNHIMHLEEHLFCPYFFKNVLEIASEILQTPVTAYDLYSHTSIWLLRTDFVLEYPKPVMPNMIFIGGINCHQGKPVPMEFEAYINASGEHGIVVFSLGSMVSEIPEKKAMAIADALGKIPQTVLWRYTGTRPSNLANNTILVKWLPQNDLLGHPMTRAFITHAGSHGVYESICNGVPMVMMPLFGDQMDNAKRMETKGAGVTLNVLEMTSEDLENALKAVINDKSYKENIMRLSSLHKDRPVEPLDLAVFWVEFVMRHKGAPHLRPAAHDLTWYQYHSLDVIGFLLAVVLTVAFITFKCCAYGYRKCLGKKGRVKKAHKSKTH
# Experimental: as §1, with “After pre-incubation for 5 min at 37°C, the reactions were started by the addition of UDPGA. After another 60 min of incubation at 37°C, the reaction was terminated by adding 100 μl of acetonitrile containing internal standard (diazepam). The mixture vortexed for 2 min and then centrifuged at 14,000 rpm for 10 min at 4°C. The resulting supernatant was injected into a liquid chromatography tandem mass spectrometry (LC-MS/MS, Applied Biosystems/MDS Sciex, Foster City, CA) system for the detection of ticagrelor-O-Glu.” left out
# Kinetic analyses were performed using the mean values of triplicate determinations with either pooled HLM, HIM, or recombinant human UGTs. All data were analyzed by nonlinear regression analysis using the GraphPad Prism 6 (GraphPad Software Inc., CA, United States). […] Intrinsic clearance (CLint) was calculated by dividing Vmax by Km.
# [4] = target: T2, recombinant human UGT2B17 (Homo sapiens, UniProt O75795); assay: Ticagrelor glucuronidation screen, recombinant human UGT2B17; details: 10 μM ticagrelor
# T2 construct: purchased BD Gentest; host or cells: baculovirus-infected insect cells
# T2 sequence (O75795 24-530): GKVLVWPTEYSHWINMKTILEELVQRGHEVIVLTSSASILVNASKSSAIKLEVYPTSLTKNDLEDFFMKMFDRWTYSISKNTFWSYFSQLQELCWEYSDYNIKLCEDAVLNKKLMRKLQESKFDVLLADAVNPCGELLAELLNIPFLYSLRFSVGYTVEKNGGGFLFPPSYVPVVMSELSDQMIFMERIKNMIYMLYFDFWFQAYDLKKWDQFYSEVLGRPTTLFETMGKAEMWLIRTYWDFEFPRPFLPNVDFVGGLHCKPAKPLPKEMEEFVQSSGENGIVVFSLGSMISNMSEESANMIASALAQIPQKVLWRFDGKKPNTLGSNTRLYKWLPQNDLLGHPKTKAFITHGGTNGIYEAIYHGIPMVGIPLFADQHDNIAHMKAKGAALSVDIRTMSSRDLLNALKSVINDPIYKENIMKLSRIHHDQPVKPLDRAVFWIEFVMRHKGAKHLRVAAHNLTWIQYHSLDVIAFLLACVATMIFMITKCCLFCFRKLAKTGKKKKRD
# Experimental: as §1, with “The resulting supernatant was injected into a liquid chromatography tandem mass spectrometry (LC-MS/MS, Applied Biosystems/MDS Sciex, Foster City, CA) system for the detection of ticagrelor-O-Glu.” left out
# [5] = target: T3, CYP2C9 (Homo sapiens, UniProt P11712); assay: CYP2C9 inhibition in HLM (diclofenac 4′-hydroxylase)
# T3 construct: co-incubation ticagrelor-O-Glu with selective P450 probe substrates in HLM; tissue XenoTech LLC; host or cells: pooled human liver microsomes
# T3 sequence (P11712 whole entry): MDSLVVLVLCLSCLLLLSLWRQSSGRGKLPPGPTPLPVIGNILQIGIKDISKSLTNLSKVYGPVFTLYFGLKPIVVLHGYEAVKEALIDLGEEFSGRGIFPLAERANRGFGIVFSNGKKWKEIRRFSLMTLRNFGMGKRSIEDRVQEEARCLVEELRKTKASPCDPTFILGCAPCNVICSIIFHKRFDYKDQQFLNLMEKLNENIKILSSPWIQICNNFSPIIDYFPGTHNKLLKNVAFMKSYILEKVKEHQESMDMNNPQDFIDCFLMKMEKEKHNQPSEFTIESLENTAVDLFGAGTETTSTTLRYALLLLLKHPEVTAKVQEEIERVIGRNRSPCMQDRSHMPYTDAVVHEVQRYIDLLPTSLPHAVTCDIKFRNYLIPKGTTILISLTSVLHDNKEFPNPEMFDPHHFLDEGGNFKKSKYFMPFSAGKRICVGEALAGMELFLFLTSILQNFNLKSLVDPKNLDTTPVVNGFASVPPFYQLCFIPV
# Experimental: The potential inhibitory effects of ticagrelor-O-Glu on the activities of major CYPs, i.e., CYP2B6, CYP2C8, CYP2C9, CYP2C19, CYP2D6, and CYP3A4, were evaluated by co-incubation ticagrelor-O-Glu with selective P450 probe substrates in HLM. Each incubation mixture containing 0.2 mg/ml HLM, ticagrelor-O-Glu and respective substrate (the final substrate concentrations are close to or less than the Km values: 150 μM bupropion, 1.26 μM amodiaquine, 10 μM diclofenac, 20 μM mephenytoin, 20 μM dextromethorphan and 80 μM testosterone (in house data)) in potassium phosphate buffer (100 mM, pH 7.4) was pre-incubated at 37°C for 5 min. Then, NADPH (10 mM) was added to initiate the reaction. The final volume of the incubation mixture was 100 μl. After incubation at 37°C for specific time points, the reaction was terminated by the addition of 200 μl of ice-cold methanol solution with internal standards (diazepam and furafylline). Preliminary screening experiments with selected concentrations of ticagrelor-O-Glu (0, 1, 10, or 100 μM of the final concentration) were carried out to determine the inhibition potency. For those that produced approximately 50% inhibition of CYPs enzyme activities at a ticagrelor-O-Glu concentration between 1 and 100 μM, IC50 was further determined with various concentrations of ticagrelor-O-Glu (0, 1, 5, 10, 20, 50, and 100 μM). All the experiments were performed in triplicates. The supernatant was obtained after centrifugation at 14,000 rpm for 10 min and injected into LC-MS/MS for the analysis of the respective metabolites. The formation of respective metabolites was determined to reflect P450 isoform activities. The metabolites quantified for CYP2B6, CYP2C8, CYP2C9, CYP2C19, CYP2D6, and CYP3A4 were hydroxy bupropion, N-Desethyl amodiaquine, 4′-hydroxylation diclofenac, S-4-hydroxy mephenytoin, dextrorphan and 6β-hydroxy testosterone, respectively.
# The percent inhibition relative to the control was calculated to indicate the UGTs or CYPs inhibition. […]
Structure (SMILES),Ksi ([1]; pooled HLM),Vmax ([1]; pooled HLM) [pmol·min^−1·mg protein^−1],"Km ([1]; pooled HLM 0.2 mg protein/ml, 60 min, substrate inhibition kinetics) [µM]",Ksi ([2]; pooled HIM) [µM],Vmax ([2]; pooled HIM) [pmol·min^−1·mg protein^−1],"Km ([2]; pooled HIM 0.2 mg protein/ml, 60 min, substrate inhibition kinetics) [µM]",microsomal CLint [3] [µL/min/mg],glucuronidation activity for ticagrelor [4],"IC50 ([5]; CYP2C9, diclofenac 4′-hydroxylase, HLM 0.2 mg/ml) [µM]","inhibition at 10 μM ([5]; human, human liver microsomes, pH 7.4, probe diclofenac (10 μM), 4′-hydroxylation diclofenac formation, HLM, 10 μM ticagrelor-O-Glu, read-out: inhibition of CYP2C9 enzyme activity) [%]","inhibition at 100 µM ([5]; human, human liver microsomes, pH 7.4, probe diclofenac (10 μM), 4′-hydroxylation diclofenac formation, HLM, 100 μM ticagrelor-O-Glu, read-out: inhibition of CYP2C9 enzyme activity) [%]"
CCCSc1nc(N[C@@H]2C[C@H]2c2ccc(F)c(F)c2)c2nnn([C@@H]3C[C@H](OCCO)[C@@H](O)[C@H]3O)c2n1 [Ticagrelor],"1,343 μM and 1,343.0 μM",8.03,5.65,292.9,0.90,2.52,0.07,no glucuronidation activities,,,
"CCCSc1nc(N[C@@H]2C[C@H]2c2ccc(F)c(F)c2)c2nnn([C@@H]3C[C@H](OCCO[C@@H]4O[C@H](C(=O)O)[C@@H](O)[C@H](O)[C@H]4O)[C@@H](O)[C@H]3O)c2n1 [Ticagrelor-O-Glu, ticagrelor-O-glucuronide]",,,,,,,,,20,44,73.5
